Assay results reported in patent US9631050B2, “Antimicrobial cationic polycarbonates” (International Business Machines Corporation, priority 2013, dated 2017).

System: mammalian red blood cells
Experimental: HC50 is defined as the concentration (in mg/L) of cationic polymer that causes 50% of mammalian red blood cells to undergo hemolysis. HC50 values of 500 mg/L or higher are desirable.
Fresh rabbit blood cells or rat blood cells were subjected to 25× dilution with phosphate buffered saline (PBS) to obtain an approximate 4% v/v suspension for use in this experiment. Red blood cell suspension (300 microliters) was added to each tube containing an equal volume (300 microliters) of polymer solution in PBS (with final polymer concentrations ranging from 3.9-500 mg/L). The tubes were then incubated at 37° C. for 1 hour before they were centrifuged at 1000×g for 5 min. Aliquots (100 microliters) of supernatant were transferred to each well of a 96-well plate and analyzed for hemoglobin release at 576 nm using a microplate reader (TECAN, Switzerland). Red blood cells suspension incubated with PBS was used as negative control. Absorbance of red blood cells lyzed with 0.1% v/v Triton X-100 was used as the positive control and taken to be 100% hemolytic. Percentage of hemolysis was calculated using the following formula: Hemolysis (%)=[(O.D.576 nm of treated sample−O.D.576 nm of negative control)/(O.D.576 nm of positive control−O.D.576 nm of negative control)]×100. Data are expressed as mean±standard deviations of 4 replicates.

Question: Butyl imidazole [Example 36] was tested. Which “HC50” value did it give?
Answer: Its value is 250 mg/L.
